What all share (assay type): cell-based, Aspergillus niger
One assay has as its system ΔrlmA strain. Briefly: microtiter plate based growth assay: sensitivity of the ΔrlmA strain versus wild-type (N402). The settings on record: spores in Complete medium, 37° C., 96-well plates, various concentrations, ΔrlmA vs N402 (FIG. 4). The method, then: Sensitivity of the ΔrlmA strain towards different compounds. Growth curves of wild-type (N402) and ΔrlmA strains. Spores were grown in Complete medium for 24 hrs at 37° C. in the presence of various concentrations of antifungals. Data are represented as the mean and standard error of the mean obtained from four replicates. The dotted line with open squares represents the growth curve of the rlmA deletion strain and the solid line with closed circles represent the parental (N402) strain.
Sensitivity towards various compounds was assayed in 96-well microtiter plates (Nunc, art. 164588) using a Perkin Elmer HTS-7000 Bioassay reader. A series of concentrations of stress-inducing compounds (CFW, Caspofungin, Hydrogen-peroxide, SDS) were prepared in 100 μl milliq in a 96-well plate, and 100 μl spore solution (˜2×10^4 spores) in 2× complete medium was added to 100 μl stress-inducing solution. The microtiter plates were incubated at 37° C. and the OD590 was measured every 2 hours.
The sensitivity of the wild-type and the ΔrlmA strain towards various compounds was also measured by determining fungal growth in a microtiter plate based growth assay.

Assay [1] relates to agsA. The assay can be described thus: Northern analysis of agsA expression after CFW-induced cell wall stress, wild-type strain (N402). As to conditions: wild-type N402 germlings, 200 μg/ml CFW, RNA at 0, 15, 30, 45 and 60 minutes (FIG. 3). The method, then:
(§1) Cell wall integrity response in the wild-type (N402) and the ΔrlmA strain. Northern analysis of the agsA, and 18S messenger levels. Strains were grown in shake flask until small germ tubes were formed. Subsequently CFW (+) or an equal volume of water (−) was added to the cultures. RNA was extracted at the timepoints indicated above the Northerns, t=time in minutes. The probes used; for agsA a ˜0.6 kb EcoRI agsA fragment was isolated from pGEMT-agsA (Damveld et al, unpublished vector); the 18S ribosomal probe was isolated as a 2 kb BglI fragment from pMN1 (Borsuk et al., 1982 Gene 17, 147-152.)
(§2) Chromosomal DNA of A. niger was isolated as described by Kolar (Kolar et al., 1988, Gene 62, 127-134). Alternatively, chromosomal DNA was isolated using the FastPrep FP120 (Bio101). First, A. niger spores were grown in Fast-prep tubes containing 1 ml CM and 0.3 gram acid washed glass beads. […] Sequencing was carried out with a Perkin Elmer ABI PRISM 310 sequencer using the ABI prism Big Dye Terminator Cycle Sequencing Ready Reaction Kit (Applied Biosystems). […]
(§3) To determine the role of A. niger RlmA in the activation of agsA in response to cell wall stress, the expression of agsA was analysed in both the wild-type strain (N402) and the rlmA deletion strain (ΔrlmA) after CFW treatment. […]

Assay [2] deals with agsA. The assay can be described thus: Northern analysis of agsA expression after CFW-induced cell wall stress, rlmA deletion strain (ΔrlmA). As to conditions: ΔrlmA germlings, 200 μg/ml CFW, RNA at 0, 15, 30, 45 and 60 minutes (FIG. 3). The procedure:
as §1, §2, §3

The results in this text go back to patent US20090047701A1, “METHOD FOR SCREENING ANTIFUNGAL AGENTS” (STICHTING VOOR DE TECHNISCHE, priority 2004, published 2009).

Turning to `O=S(=O)(O)c1cc(Nc2nc(Nc3ccccc3)nc(N(CCO)CCO)n2)ccc1/C=C/c1ccc(Nc2nc(Nc3ccccc3)nc(N(CCO)CCO)n2)cc1S(=O)(=O)O` [CFW, Calcofluor White], in the assay on ΔrlmA strain, the “Sensitivity of the ΔrlmA strain towards the compound in comparison to the wild-type strain (fungal growth, OD590)” value was “hypersensitive phenotype”. Besides, the “expression level of the agsA gene after CFW addition” value in the assay with agsA [1] was “already induced 15 minutes after CFW addition”. Also, in the assay with agsA [2], the “agsA mRNA in the ΔrlmA strain after treatment with CFW” value was “no agsA mRNA could be detected”.

For `CC[C@H](C)C[C@H](C)CCCCCCCCC(=O)N[C@H]1C[C@@H](O)[C@@H](NCCN)NC(=O)[C@@H]2[C@@H](O)CCN2C(=O)[C@H]([C@H](O)CCN)NC(=O)[C@H]([C@H](O)[C@@H](O)c2ccc(O)cc2)NC(=O)[C@@H]2C[C@@H](O)CN2C(=O)[C@H]([C@@H](C)O)NC1=O` [Caspofungin], the “Sensitivity of the ΔrlmA strain towards the compound in comparison to the wild-type strain (fungal growth, OD590)” value in the assay on ΔrlmA strain is reported as “slightly, but reproducible enhanced”.

For the compound `OO` [H2O2, Hydrogen-peroxide], the “Sensitivity of the ΔrlmA strain towards the compound in comparison to the wild-type strain (fungal growth, OD590)” value in the assay with ΔrlmA strain was “no hypersensitive phenotype”.

Turning to `CCCCCCCCCCCCOS(=O)(=O)[O-].[Na+]` [SDS], the “Sensitivity of the ΔrlmA strain towards the compound in comparison to the wild-type strain (fungal growth, OD590)” value in the assay on ΔrlmA strain is reported as “hypersensitive phenotype”.

Consider `CCCCNC(=O)n1c(NC(=O)OC)nc2ccccc21` [benomyl], for which, in the assay with ΔrlmA strain, the “Sensitivity of the ΔrlmA strain towards the compound in comparison to the wild-type strain (fungal growth, OD590)” value is reported as “slightly, but reproducible enhanced”.

tunicamycin: the “Sensitivity of the ΔrlmA strain towards the compound in comparison to the wild-type strain (fungal growth, OD590)” value in the assay with ΔrlmA strain is recorded as “slightly, but reproducible enhanced”.
